What was measured:
[1] = test system: melanin cell; experiment: B-2 Inhibition test of cell melanin synthesis (chromogenic method); assay type: cell-based; settings: for inhibitory effect on cellular melanin synthesis (in words): at a lower concentration (no more than 0.10% g/m L); for inhibitory effect on cellular melanin synthesis compared with kojic acid: comparison with kojic acid
Method: According to cytotoxicity test data, an inhibition test of cell melanin synthesis was performed within the range allowed by cytotoxicity. The range allowed by cytotoxicity is a range of sample concentration corresponding to a relative cell viability more than 60% in the cytotoxicity test. The samples were grouped according to different concentrations, and a test index was melanin content, a test model was melanin cell, and a detection method is a chromogenic method. Cells at logarithmic growth phase were collected, and the cells were inoculated into 24-well plates at a cell density of 2×10^5 cells/well. After 24 h of incubation in the incubator (37° C., 5% CO2), according to the results of cytotoxicity, the drug was added according to the concentration requirements. The untreated cells were used as a blank control, and three parallel controls were set up in each group. After the drug added, the incubation was continued in the incubator (37° C., 5% CO2) for 48 h. The supernatant was discarded, 1 mL of 1 M NaOH containing 10% DMSO was added, and the plate was placed in a thermostatic oven for incubation at 60° C. for 1 h. After restoring to a room temperature, 200 μL mixed solution of each well was transferred to a 96-well plate, and 1 M NaOH containing 10% DMSO was used as a blank control. The absorbance value was read at 405 nm, and the inhibition rate of cellular melanin synthesis was calculated according to the following equation (5): […]

[2] = test system: human melanoma cells (G361); experiment: B-1 Cytotoxicity test (MTT, relative cell viability); assay type: cell-based; settings: 24 h
Method: • a) Cell inoculation: human melanoma cells (G361) were inoculated into 96-well plates at a density of 1×10^4 cells/well, and the 96-well plates were placed in an incubator (37° C., 5% CO2) overnight for incubation. • b) Experimental grouping: the experiments were set up with a zeroing group, a control group, a positive control group, and a sample group. In the sample group, each sample was set up with different concentration gradients, and 3 replicate wells were set up under each concentration gradient. • c) Solution preparation: different concentrations of sample working solution were prepared according to the concentrations in Table 4. • d) Drug administration: a drug administration was performed until the cell plating rate in the 96-well plate reaches 40%-60%. In the control group, 200 μL of culture medium containing 10% PBS (Gibco) […] was added to each well; in the positive control group, 200 μL of culture medium containing 10% DMSO was added to each well; in the sample group, 200 μL of culture medium containing the corresponding concentration of sample was added to each well; in the zeroing group, no cell was inoculated and only 200 μL of cell culture medium was added. After the drug administration completed, the 96-well plates were placed in an incubator (37° C., 5% CO2) for incubation. • e) Detection: after incubation for 24 h, the supernatant was discarded, and MTT working solution (0.5 mg/mL) was added and incubated at 37° C. in the dark for 4 h. After incubation, the supernatant was discarded, and 100 μL DMSO was added into each well and the OD value was obtained at 490 nm. • f) Relative cell viability was calculated by the following equation (4): […]

## CC(c1ccc(O)cc1O)N1CCCCCC1=O (centres unmarked) [I-g]
[1]
  inhibitory effect on cellular melanin synthesis (in words): have an inhibitory effect on cellular melanin synthesis
[2]; human, 0.007813 % (g/mL)
  Relative cell viability: 117.8165%
[2]; human, 0.015625 % (g/mL)
  Relative cell viability: 120.6987%
[2]; human, 0.03125 % (g/mL)
  Relative cell viability: 107.8966%
[2]; human, 0.125 % (g/mL)
  Relative cell viability: 113.8122%
[2]; human, 0.25 % (g/mL)
  Relative cell viability: 120.9409%
[2]; human, 0.5 % (g/mL)
  Relative cell viability: 107.9874%

## CC(c1ccc(O)cc1O)N1CCCCC1=O (centres unmarked) [I-a]
[1]
  inhibitory effect on cellular melanin synthesis (in words): have an inhibitory effect on cellular melanin synthesis
  inhibitory effect on cellular melanin synthesis compared with kojic acid: superior to that of kojic acid

## CC(c1ccccc1)c1ccc(O)cc1O (centres unmarked) [control group, phenylethyl resorcinol, reference compound]
[2]; G361 cells, MTT, sample concentration 0.007813 % (g/mL)
  Relative cell viability: 106.32%
[2]; G361 cells, MTT, sample concentration 0.015625 % (g/mL)
  Relative cell viability: 114.68%
[2]; G361 cells, MTT, sample concentration 0.03125 % (g/mL)
  Relative cell viability: 101.15%
[2]; G361 cells, MTT, sample concentration 0.125 % (g/mL)
  Relative cell viability: 100.10%
[2]; G361 cells, MTT, sample concentration 0.25 % (g/mL)
  Relative cell viability: 106.07%
[2]; G361 cells, MTT, sample concentration 0.5 % (g/mL)
  Relative cell viability: 96.77%

## CCCC(c1ccc(O)cc1O)N1CCCC1=O (centres unmarked) [I-f]
[1]
  inhibitory effect on cellular melanin synthesis (in words): have an inhibitory effect on cellular melanin synthesis

## CCCC(c1ccc(O)cc1O)N1CCCCC1=O (centres unmarked) [I-e]
[1]
  inhibitory effect on cellular melanin synthesis (in words): have an inhibitory effect on cellular melanin synthesis

## CC(c1cc(C(C)N2CCCC2=O)c(O)cc1O)N1CCCC1=O (centres unmarked) [V-c]
[1]
  inhibitory effect on cellular melanin synthesis (in words): have an inhibitory effect on cellular melanin synthesis

## CC(c1ccc(O)cc1O)N1CCCC1=O (centres unmarked) [I-h]
[1]
  inhibitory effect on cellular melanin synthesis (in words): have an inhibitory effect on cellular melanin synthesis

## CCC(c1ccc(O)cc1O)N1CCCC1=O (centres unmarked) [I-d]
[1]
  inhibitory effect on cellular melanin synthesis (in words): have an inhibitory effect on cellular melanin synthesis
  inhibitory effect on cellular melanin synthesis compared with kojic acid: superior to that of kojic acid

## CC(c1ccccc1)c1cc(C(C)c2ccccc2)c(O)cc1O (centres unmarked) [V-a]
[1]
  inhibitory effect on cellular melanin synthesis (in words): have an inhibitory effect on cellular melanin synthesis
  inhibitory effect on cellular melanin synthesis compared with kojic acid: superior to that of kojic acid
